Reference: paper PMC10568461, “A pilot study of cerebral metabolism and serotonin 5-HT2A receptor occupancy in rats treated with the psychedelic tryptamine DMT in conjunction with the MAO inhibitor harmine” (Frontiers in Pharmacology, 2023)

Experiment: Brain concentrations of harmine, DMT and metabolites by UHPLC-MS after s.c. harmine and/or DMT
Conditions: for concentration at 95 min / concentration at 65 min: rat, subcutaneous
[1] = Exp 1, group DMT, average of regions
[2] = Exp 1, group Har + DMT, average of regions
[3] = Exp 1, group Har + DMT, cerebellum
[4] = Exp 1, group Har + DMT, front cort
[5] = Exp 2, group Har + DMT, average of regions
[6] = Exp 2, group Har + DMT, cerebellum
[7] = Exp 2, group Har + DMT, front cort
[8] = brain (average of frontal cortex and cerebellum), 1 mg/kg, Molar concentration, Exp 1, group DMT, average of regions
[9] = brain (average of frontal cortex and cerebellum), Molar concentration, Exp 1, group Har + DMT, average of regions
[10] = brain (average of frontal cortex and cerebellum), Molar concentration, Exp 2, group Har + DMT, average of regions
[11] = cerebellum, 1 mg/kg, Molar concentration, Exp 1, group DMT, cerebellum
[12] = cerebellum, Molar concentration, Exp 1, group Har + DMT, cerebellum
[13] = cerebellum, Molar concentration, Exp 2, group Har + DMT, cerebellum
[14] = frontal cortex, 1 mg/kg, Molar concentration, Exp 1, group DMT, front cort
[15] = frontal cortex, Molar concentration, Exp 1, group Har + DMT, front cort
[16] = frontal cortex, Molar concentration, Exp 2, group Har + DMT, front cort

Method: Groups of (n = 6) rats received either saline, harmine (1 mg/kg), DMT (1 mg/kg), or harmine + DMT (1 mg/kg each) as subcutaneous injections, as indicated in Figure 1.
After 45 min, rats were sacrificed by decapitation, and the brains dissected into cerebellum and frontal cortex samples for radioactivity measurement and chemical analysis, thus 65 min after harmine + DMT.

With O=C(O)Cc1c[nH]c2ccccc12 [3-IAA, indole-3-acetic acid] the “Percentage of total molar concentration of DMT and metabolites” value (“Percentage” below) [1] was 97.5%, the “Percentage” value (Exp 1, group DMT, cerebellum) was 97.9% and the “Percentage” value (Exp 1, group DMT, front cort) was 97.3%. For the same compound, the “Percentage” value [2] was 64.7%, the “Percentage” value [3] was 65.3% and the “Percentage” value [4] was 64.2%. For the same compound, the “Percentage” value [5] was 25.9%, the “Percentage” value [6] was 27.5% and the “Percentage” value [7] was 24.7%. For the same compound, the Brain concentration (Experiment 1, cerebellum, group DMT (1 mg/kg s.c.), 95 min, mean (SD)) was 398.5 (128.3) ng/g, the Brain concentration (Experiment 1, cerebellum, group Har + DMT (1 mg/kg each s.c.), 95 min, mean (SD)) was 194.1 (117.2) ng/g and the Brain concentration (Experiment 1, frontal cortex, group DMT (1 mg/kg s.c.), 95 min, mean (SD)) was 503.9 (137.7) ng/g. For the same compound, the Brain concentration (Experiment 1, frontal cortex, group Har + DMT (1 mg/kg each s.c.), 95 min, mean (SD)) was 257.5 (103.6) ng/g, the “Lower cerebral 3-IAA concentration after co-administration of harmine and DMT” value (Experiment 1, versus DMT alone) was 50% and the Brain concentration (Experiment 2, cerebellum, group Har + DMT (3 mg/kg each s.c.), 65 min, mean (SD)) was 530.7 (129.8) ng/g. The Brain concentration (Experiment 2, frontal cortex, group Har + DMT (3 mg/kg each s.c.), 65 min, mean (SD)) was 652.1 (186.5) ng/g, the concentration at 95 min [8] was 2.58 µM and the concentration at 95 min [9] was 1.29 µM. The concentration at 65 min [10] was 3.38 µM, the concentration at 95 min (cerebellum, 1 mg/kg, Brain concentration, Experiment 1, cerebellum, after DMT alone (1 mg/kg)) was 2.3 µM and the concentration at 95 min (cerebellum, 1 mg/kg, Brain concentration, Experiment 1, cerebellum, group DMT (1 mg/kg s.c.), 95 min, mean (SD)) was 398 ng/g. It also gave a concentration at 95 min [11] of 2.27 µM, a concentration at 95 min (cerebellum, Brain concentration, Experiment 1, cerebellum, after harmine + DMT (1 mg/kg each)) of 1.1 µM and a concentration at 95 min (cerebellum, Brain concentration, Experiment 1, cerebellum, group Har (harmine 1 mg/kg s.c.), 95 min after drug, mean (SD)) of 11.1 ng/g. The concentration at 95 min (cerebellum, Brain concentration, Experiment 1, cerebellum, group Har + DMT (1 mg/kg each s.c.), 95 min, mean (SD)) was 194 ng/g, the concentration at 65 min (cerebellum, Brain concentration, Experiment 2, cerebellum, after harmine + DMT (3 mg/kg each)) was 3 µM and the concentration at 65 min (cerebellum, Brain concentration, Experiment 2, cerebellum, group Har + DMT (3 mg/kg each s.c.), 65 min, mean (SD)) was 531 ng/g. For the same compound, the concentration at 95 min [12] was 1.11 µM, the concentration at 65 min [13] was 3.03 µM and the concentration at 95 min (frontal cortex, 1 mg/kg, Brain concentration, Experiment 1, frontal cortex, after DMT alone (1 mg/kg)) was 2.9 µM. It also gave a concentration at 95 min (frontal cortex, 1 mg/kg, Brain concentration, Experiment 1, frontal cortex, group DMT (1 mg/kg s.c.), 95 min, mean (SD)) of 504 ng/g, a concentration at 95 min [14] of 2.88 µM and a concentration at 95 min (frontal cortex, Brain concentration, Experiment 1, frontal cortex, after harmine + DMT (1 mg/kg each), 95 min) of 1.5 µM. The concentration at 95 min (frontal cortex, Brain concentration, Experiment 1, frontal cortex, group Har (harmine 1 mg/kg s.c.), 95 min, mean (SD)) was 14.1 ng/g, the concentration at 95 min (frontal cortex, Brain concentration, Experiment 1, frontal cortex, group Har + DMT (1 mg/kg each s.c.), 95 min, mean (SD)) was 258 ng/g and the concentration at 65 min (frontal cortex, Brain concentration, Experiment 2, frontal cortex, after harmine + DMT (3 mg/kg each), 65 min) was 3.7 µM. The concentration at 65 min (frontal cortex, Brain concentration, Experiment 2, frontal cortex, group Har + DMT (3 mg/kg each s.c.), 65 min, mean (SD)) was 652 ng/g, the concentration at 95 min [15] was 1.47 µM and the concentration at 65 min [16] was 3.72 µM.
With C[N+](C)([O-])CCc1c[nH]c2ccccc12 [DMT-N-Oxide, DMT-N-oxide] the Molar concentration [1] was 3.29 nmol/L, the “Percentage” value [1] was 0.1% and the Molar concentration (Exp 1, group DMT, cerebellum) was 3.16 nmol/L. The “Percentage” value (Exp 1, group DMT, cerebellum) was 0.1%, the Molar concentration (Exp 1, group DMT, front cort) was 3.43 nmol/L and the “Percentage” value (Exp 1, group DMT, front cort) was 0.1%. The Molar concentration [2] was 27.52 nmol/L, the “Percentage” value [2] was 1.4% and the Molar concentration [3] was 30.49 nmol/L. The “Percentage” value [3] was 1.8%, the Molar concentration [4] was 24.54 nmol/L and the “Percentage” value [4] was 1.1%. For the same compound, the Molar concentration [5] was 90.73 nmol/L, the “Percentage” value [5] was 0.7% and the Molar concentration [6] was 131.9 nmol/L. For the same compound, the “Percentage” value [6] was 1.2%, the Molar concentration [7] was 49.57 nmol/L and the “Percentage” value [7] was 0.3%.
For CNCCc1c[nH]c2ccccc12 [NMT, N-methyltryptamine], the “Percentage” value [1] was 0.0%, the “Percentage” value (Exp 1, group DMT, cerebellum) was 0.0% and the “Percentage” value (Exp 1, group DMT, front cort) was 0.0%. The “Percentage” value [2] was 0.1%, the “Percentage” value [3] was 0.1% and the “Percentage” value [4] was 0.0%. For the same compound, the “Percentage” value [5] was 0.1%, the “Percentage” value [6] was 0.2% and the “Percentage” value [7] was 0.1%. For the same compound, the concentration at 95 min [8] was 0.00015 µM, the concentration at 95 min [9] was 0.00114 µM and the concentration at 65 min [10] was 0.0159 µM. The concentration at 95 min [11] was 0.00015 µM, the concentration at 95 min [12] was 0.00138 µM and the concentration at 65 min [13] was 0.0207 µM. It also gave a concentration at 95 min [14] of 0.00016 µM, a concentration at 95 min [15] of 0.00089 µM and a concentration at 65 min [16] of 0.0112 µM.
